The text below walks through data of paper PMC11177969, “Comprehensive Analyses of the Effects of the Small-Molecule Inhibitor of the UHM Domain in the Splicing Factor U2AF1 in Leukemia Cells” (Research Square, 2024).

One experiment has as its target T1, SPF45-UHM (Homo sapiens, UniProt Q96I25).
T1 sequence (Q96I25 306-385 limits assumed): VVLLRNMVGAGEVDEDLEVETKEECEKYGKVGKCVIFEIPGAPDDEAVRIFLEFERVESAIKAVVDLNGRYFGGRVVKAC
As to the kind of experiment: HTRF assay. The class given is binding. The settings on record: Fig. 2C; SD of 2 independent experiments in parentheses. From the text:
(§1) To determine the selectivity of SF1–8 against other homologous UHM domains, we measured the IC50 values of SF1–8 to RBM39-UHM, SPF45-UHM and PUF60-UHM using the HTRF assay.[42] […] In the chemical synthesis (Scheme S1), methylation on the pyrazole group in SF1–8 can occur at the N8 or N9 position (Fig.2C). Although the NMR spectra can be used to infer the methyl group position on the pyrazole, we determined the crystal structure of a SF1–8 precursor to clearly confirm the methyl group is at N9 in SF1–8 (Fig.2C). To further probe the interaction of SF1–8 with U2AF1-UHM, we synthesized SF1–8 analogs and developed the structure activity relationship (SAR) (Fig.2C). […] A longer alkyl group was tolerated at the N8 position but not at the N9 position. […] The crystal structure of a 7c precursor experimentally determined from SCXRD again confirmed the location of the propyl group (Fig. 2C).
(In general: TR-FRET usually uses a lanthanide donor and a delayed reading to cut background.)

The next experiment concerns the target T2, PUF60-UHM (Homo sapiens, UniProt Q9UHX1).
T2 sequence (Q9UHX1 462-549 limits assumed): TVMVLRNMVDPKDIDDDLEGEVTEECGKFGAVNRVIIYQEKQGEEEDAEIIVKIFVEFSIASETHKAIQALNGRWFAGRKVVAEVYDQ
The experiment in a line: HTRF assay. The settings on record: Fig. 2C. It is filed as binding.
Source text: as §1

The target in a further experiment is T3, RBM39-UHM (Homo sapiens, UniProt Q14498).
T3 sequence (Q14498 445-508 limits assumed): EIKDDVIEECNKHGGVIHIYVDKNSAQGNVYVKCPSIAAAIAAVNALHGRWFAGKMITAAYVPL
The experiment in a line: HTRF assay. The note with it: Fig. 2C; SD of 2 independent experiments in parentheses. It is filed as binding.
Source text: as §1

Another experiment has as its target T4, U2AF1-UHM (Homo sapiens, UniProt Q01081).
T4 construct: we screened the CCG fragment library from University of Michigan against the U2AF1-UHM domain using the Thermal Shift Assay (TSA)
T4 sequence (Q01081 65-147 limits assumed): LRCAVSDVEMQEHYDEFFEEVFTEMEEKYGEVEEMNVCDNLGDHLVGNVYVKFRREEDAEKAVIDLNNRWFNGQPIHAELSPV
The experiment in a line: HTRF assay, inhibition of binding between U2AF1-UHM and U2AF2-ULM. The settings on record: Fig. 2C; SD of 2 independent experiments in parentheses; read-out: IC50 U2AF1. From the text: TSA data provided no information of the binding site in U2AF1-UHM. To identify the binding sites of both hits to U2AF1-UHM, we synthesized CCG211578 (named Hit1/SF1–8) and CCG210084 (named Hit2/9 in Fig.2C) and asked if they inhibited the binding between U2AF1-UHM and U2AF2-ULM using our previously developed HTRF assay.[42] […] The IC50 values of SF1–8 and Hit2 correlated with the ΔTm values observed in TSA. We have reported that the conserved Trp binding site in U2AF1-UHM dominated the binding affinity between U2AF2-ULM and U2AF1-UH.[42]

What is called IC50 is the concentration needed to halve the response being measured. For `CCn1nc(C2(C)CCNCC2)cc1O` [7b], the IC50 at SPF45-UHM was 958 µM; against PUF60-UHM, 910 µM; on RBM39-UHM it was greater than 1000 µM; at U2AF1-UHM, 467 µM.

As for `CCCn1nc(C2(C)CCNCC2)cc1O` [7c], the IC50 at SPF45-UHM stood at 62.4 µM; at PUF60-UHM, 541 µM; at RBM39-UHM it was 310 µM; on U2AF1-UHM, 53.1 µM.

As to `CC(C)n1nc(C2(C)CCNCC2)cc1O` [7d], the IC50 on SPF45-UHM worked out at 694 µM; against PUF60-UHM, 1090 µM; at RBM39-UHM, 791 µM; at U2AF1-UHM, 863 µM.

With `CCC1(c2cc(O)n(C)n2)CCNCC1` [7e], the half-inhibitory concentration (IC50) is 519 µM on SPF45-UHM, greater than 1000 µM against PUF60-UHM, greater than 1000 µM on RBM39-UHM and 383 µM at U2AF1-UHM.

As to `Cn1nc(O)cc1C1(C)CCNCC1` [8a], the figures for the IC50 at SPF45-UHM, against PUF60-UHM and on RBM39-UHM were 473 µM, 550 µM and greater than 1000 µM, respectively.

On to `CCn1nc(O)cc1C1(C)CCNCC1` [8b], for which the IC50 is 799 µM at SPF45-UHM, greater than 1000 µM against PUF60-UHM, greater than 1000 µM at RBM39-UHM and 232 µM at U2AF1-UHM.
